These results are taken from patent US6670371B2, “Certain pyrrolopyridine derivatives: novel CRF1 specific ligands” (Neurogen Corporation, priority 1995, dated 2003).

Series [1] has as its target T1, CRF receptors (Homo sapiens, UniProt P34998).
T1 sequence (P34998 24-415): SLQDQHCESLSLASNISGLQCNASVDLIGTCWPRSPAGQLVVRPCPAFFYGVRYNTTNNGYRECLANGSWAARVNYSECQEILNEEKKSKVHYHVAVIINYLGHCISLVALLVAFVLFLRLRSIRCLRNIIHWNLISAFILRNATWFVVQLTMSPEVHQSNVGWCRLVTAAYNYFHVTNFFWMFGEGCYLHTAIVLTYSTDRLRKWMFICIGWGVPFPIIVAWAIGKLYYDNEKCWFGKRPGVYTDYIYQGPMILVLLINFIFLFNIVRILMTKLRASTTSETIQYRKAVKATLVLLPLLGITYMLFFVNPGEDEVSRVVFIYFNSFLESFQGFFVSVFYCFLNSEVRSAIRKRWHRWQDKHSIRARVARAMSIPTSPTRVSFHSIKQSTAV
As to the kind of experiment: CRF receptor binding assay (125I-CRF displacement). The note with it: membrane pellets containing CRF receptors; 125I-CRF 100 pM; room temperature for 2 hours; non specific binding defined by 1 uM cold CRF. The procedure: Assay for CRF Receptor Binding Activity
CRF receptor binding was performed using a modified version of the assay described by Grigoriadis and De Souza (Biochemical, Pharmacological, and Autoradiographic Methods to Study Corticotropin-Releasing Factor Receptors. Methods in Neurosciences, Vol. 5, 1991). Membrane pellets containing CRF receptors were resuspended in 50 mM Tris buffer pH 7.7 containing 10 mM MgCl2 and 2 mM EGTA and centrifuged for 10 minutes at 48000 g. Membranes were washed again and brought to a final concentration of 1500 ug/ml in binding buffer (Tris buffer above with 0.1% BSA, n 0.15 M bacitracin and 0.01 mg/ml aprotinin.). For the binding assay, 100 ul of the membrane preparation was added to 96 well microtube plates containing 100 ul of 125I-CRF (SA 2200 Ci/mmol, final concentration of 100 pM) and 50 ul of drug. Binding was carried out at room temperature for 2 hours. Plates were then harvested on a Brandel 96 well cell harvester and filters were counted for gamma emissions on a Wallac 1205 Betaplate liquid scintillation counter. Non specific binding was defined by 1 uM cold CRF.

The structures appear in SMILES notation.

For the molecule `CCCN(CCC)c1cc(C)nc2c1c1c(n2-c2c(C)cc(C)cc2C)CCCC1` [Compound 1, N,N-Dipropyl-2-methyl-6,7,8,9-tetrahydro-9-(2,4,6-trimethylphenyl)-5H-pyrido[2,3-b]indol-4-amine], the melting point (usually the temperature of the solid-liquid transition) was 117 to 118 °C. The half-maximal inhibitory concentration (IC50) (as a rule, the concentration at which inhibition is half-maximal) in series [1] came out at 11 nM.
